{
  "source": "patent US9815863B2",
  "about": "“Hydrogen bond forming fluoro ketolides for treating diseases” (priority 2010, dated 2017)",
  "key": {"[1]": {"test_system": "ribosomes isolated from the S. aureus N315 strain", "test": "Binding of [14C]erythromycin to ribosomes from S. aureus N315", "settings": "ribosomes from S. aureus N315, dimethylated at A2058", "description": "Competition binding studies. Binding of erythromycin to E. coli and S. aureus ribosomes and competition experiments were done by size-exclusion chromatography using Bio-Gel P30 spin columns as described in Xiong, L., Y. Korkhin, and A. S. Mankin. 2005. Binding site of the bridged macrolides in the Escherichia coli ribosome. Antimicrob. Agents Chemother. 49:281-288.\nDirect antibiotic binding experiments were done by incubating ribosomes at a 100 nM concentration with varying concentrations of radiolabeled drug in a total volume of 160 μL in buffer A (20 mM Tris-HCl [pH 7.5], 10 mM MgCl2, 150 mM NH4Cl, 6 mM 2-mercaptoethanol) at 37° C. for 15 min, then at 20° C. for 10 min. The reactions were loaded onto the spin columns and centrifuged in a swinging-bucket microcentrifuge rotor for 1 min at 1,000 g at room temperature. The flow-through solution was collected; 130 μL was mixed with 5 mL of the scintillation cocktail. Radioactivity was measured in a scintillation counter and used to calculate the amount of the radiolabeled drug bound to ribosomes.\nInteraction of CEM-101 with S. aureus ribosomes dimethylated at A2058 by Erm-methyltransferase. Erm-methyltransferase modifies A2058 in 23S rRNA by consecutively adding two methyl groups to the exocyclic amino group of the adenine base. […]"}, "ribosomes": {"target": "ribosomes", "settings": "literature values for erythromycin binding; read-out: Kd, previously published; cited from earlier work"}, "E. coli 70S ribosomes": {"test_system": "E. coli 70S ribosomes", "test": "Saturation (direct) binding of radiolabeled drug to E. coli ribosomes, spin-column", "description": "(§1) Ribosomes were prepared from E. coli, strain MRE 600, S. aureus strain ATCC 29212, or S. aureus strain N315 by standard protocols (Spedding™, G. 1990. Isolation and analysis of ribosomes from prokaryotes, eukaryotes, and organelles, p. 1-29. In G. Spedding (ed.), Ribosomes and protein synthesis, a practical approach. Oxford University Press, Oxford, United Kingdom; Adams, P. D., P. V. Afonine, G. Bunkoczi, V. B. Chen, I. W. Davis, N. Echols, J. J. Headd, L. W. Hung, G. J. Kapral, R. W. Grosse-Kunstleve, A. J. McCoy, N. W. Moriarty, R. Oeffner, R. J. Read, D. C. Richardson, J. S. Richardson, T. C. Terwilliger, and P. H. Zwart. 2010. PHENIX: a comprehensive Python-based system for macromolecular structure solution. Acta Crystallogr. D. Biol. Crystallogr. 66:213-221).\n(§2) Competition binding studies. […]\n(§3) Direct antibiotic binding experiments were done by incubating ribosomes at a 100 nM concentration with varying concentrations of radiolabeled drug in a total volume of 160 μL in buffer A (20 mM Tris-HCl [pH 7.5], 10 mM MgCl2, 150 mM NH4Cl, 6 mM 2-mercaptoethanol) at 37° C. for 15 min, then at 20° C. for 10 min. […] Radioactivity was measured in a scintillation counter and used to calculate the amount of the radiolabeled drug bound to ribosomes."}, "S. aureus 70S ribosomes": {"target": "S. aureus 70S ribosomes", "test": "Saturation (direct) binding of radiolabeled drug to S. aureus wild-type ribosomes, spin-column", "description": "as §1, §2, §3"}, "[2]": {"test_system": "S. aureus ribosomes (23S rRNA)", "test": "RNA footprinting (ribosome chemical probing), wild-type S. aureus ribosomes", "type": "binding", "settings": "S. aureus ribosomes, 100 μM antibiotic", "description": "(§4) Ribosome chemical probing. rRNA probing was done following standard protocols (Merryman, C., and H. F. Noller. 1998. Footprinting and modification-interference analysis of binding sites on RNA, p. 237-253. In C. W. J. Smith (ed.), RNA:Protein Interactions, A Practical Approach. Oxford University Press, Oxford), with minor modifications. Briefly, 200 nM ribosomes were incubated with 100 μM antibiotic in 50 μL of buffer B (80 mM HEPES-KOH [pH 7.8], 20 mM MgCl2, 100 mM NH4Cl, 1.5 mM dithiothreitol) for 10 min at 37° C., followed by 10 min at 20° C. Modifying reagents (dimethyl sulfate [DMS], kethoxal, or 1-cyclohexyl-3-(2-morpholinoethyl)carbodiimide metho p-toluene sulfonate [CMCT]) were added and the modification reaction was carried out for 10 min at 37° C. After quenching the reaction and ethanol precipitation, rRNA was extracted and the distribution of modified nucleotides was assessed by primer extension.\n(§5) Interactions of CEM-101 with wild-type E. coli and S. aureus ribosomes in solution. […] 1987. Chloramphenicol, erythromycin, carbomycin and vernamycin B protect overlapping sites in the peptidyl transferase region of 23S ribosomal RNA. Biochimie 69:879-884). Also included in this study was a C3-cladinose cousin of CEM-101, CEM-103, which lacks the C2-linked fluorine atom."}, "[3]": {"test_system": "E. coli ribosomes (23S rRNA)", "test": "RNA footprinting (ribosome chemical probing), wild-type E. coli ribosomes", "type": "binding", "settings": "E. coli ribosomes, 100 μM antibiotic", "description": "as §4, §5"}, "[4]": {"test_system": "2058-dimethylated ribosomes isolated from the S. aureus N315 strain", "test": "RNA footprinting of A2058-dimethylated (Erm-modified) ribosomes from S. aureus N315", "type": "binding", "settings": "S. aureus N315 ribosomes dimethylated at A2058, drugs at 100 μM", "description": "as §4\nInteraction of CEM-101 with S. aureus ribosomes dimethylated at A2058 by Erm-methyltransferase. Erm-methyltransferase modifies A2058 in 23S rRNA by consecutively adding two methyl groups to the exocyclic amino group of the adenine base. Such modification completely blocks binding of erythromycin and similar macrolides, whereas its effect on binding of ketolides is less clear (Douthwaite, S., L. H. Hansen, and P. Mauvais. 2000. Macrolide-ketolide inhibition of MLS-resistant ribosomes is improved by alternative drug interaction with domain R of 23S rRNA. Mol. Microbiol. 36:183-193; Liu, M., and S. Douthwaite. 2002. Activity of the ketolide telithromycin is refractory to Erm monomethylation of bacterial rRNA. Antimicrob. Agents Chemother. 46:1629-1633). Therefore, interaction of CEM-101 with the ribosomes isolated from a clinical S. aureus strain N315, which carries five chromosomal copies of constitutively expressed ermA gene present in the Tn554 transposon (Kuroda, M., T. Ohta, I. Uchiyama, T. Baba, H. Yuzawa, I. Kobayashi, L. Cui, A. Oguchi, K. Aoki, Y. Nagai, J. Lian, T. Ito, M. Kanamori, H. Matsumaru, A. Maruyama, H. Murakami, A. Hosoyama, Y. Mizutani-Ui, N. K. Takahashi, T. Sawano, R. Inoue, C. Kaito, K. Sekimizu, H. Hirakawa, S. Kuhara, S. Goto, J. Yabuzaki, M. Kanehisa, A. Yamashita, K. Oshima, K. Furuya, C. Yoshino, T. Shiba, M. Hattori, N. Ogasawara, H. Hayashi, and K. Hiramatsu. 2001. Whole genome sequencing of meticillin-resistant Staphylococcus aureacs. Lancet 357:1225-1240) was investigated.\nFootprinting analysis was used to test interactions of ketolides (CEM-101 and telithromycin) and cladinose-containing macrolides (CEM-103 and erythromycin) with the 2058-dimethylated ribosomes isolated from the S. aureus N315 strain. Ribosomes were incubated with the drugs (present at 100 μM concentration) and probed by DMS modification. Because dimethylated A2058 blocks progression of reverse transcriptase along the RNA template, a strong reverse transcriptase stop is observed at A2058 on the primer extension gel (Vester, B., and S. Douthwaite. 1994. Domain V of 23S rRNA contains all the structural elements necessary for recognition by the ErmE methyltransferase. J. Bacteriol. 176:6999-7004; Zhong, P., Z. Cao, R. Hammond, Y. Chen, J. Beyer, V. D. Shortridge, L. Y. Phan, S. Pratt, J. Capobianco, K. A. Reich, R. K. Flamm, Y. S. Or, and L. Katz. 1999. Induction of ribosome methylation in MLS-resistant Streptococcus pneumoniae by macrolides and ketolides. Microb. Drug Resist. 5:183-188). Therefore, it is impossible to use footprinting to evaluate interactions of macrolides with this position in the S. aureus N315 ribosomes. […]"}},
  "data": [
    {"molecule": "CC[C@H]1OC(=O)[C@H](C)[C@@H](O[C@H]2C[C@@](C)(OC)[C@@H](O)[C@H](C)O2)[C@H](C)[C@@H](O[C@@H]2O[C@H](C)C[C@H](N(C)C)[C@H]2O)[C@](C)(O)C[C@@H](C)C(=O)[C@H](C)[C@@H](O)[C@]1(C)O", "note": "[erythromycin]", "values": [
      {"measurement": "Binding to ribosomes", "setting": "[1]", "value": "lack of binding"},
      {"measurement": "Kd", "setting": "ribosomes", "value": "10 to 100", "unit": "nM"},
      {"measurement": "Kd", "setting": "E. coli 70S ribosomes", "value": "66 ± 11", "unit": "nM"},
      {"measurement": "Kd", "setting": "S. aureus 70S ribosomes", "value": "11 ± 1", "unit": "nM"},
      {"measurement": "Protection of A752 from DMS modification", "setting": "[2]", "value": "fails to protect"},
      {"measurement": "Protection of A752 from DMS modification", "setting": "[3]", "value": "fails to protect"},
      {"measurement": "Protection of A2059 from DMS modification (binding to Erm-modified ribosome)", "setting": "[4]", "value": "not"},
      {"measurement": "Protection of G2505 from kethoxal modification", "setting": "[4]", "value": "did not protect"},
      {"measurement": "Protection of U2609 from modification with CMCT", "setting": "[4]", "value": "did not protect"}
    ]}
  ]
}
